Our source for the melting point and IC50 values is patent US8008322B2, “Substituted pyrazolopyridines, compositions containing them, method for the production thereof, and their use” (Aventis Pharma S.A., priority 2005, dated 2011).

A value given as a limit tells only on which side of the number the result lay.

In data set [1] the target is T1, human KDR enzyme (Homo sapiens, UniProt P35968).
T1 construct: The cytoplasmic domain of the human KDR enzyme was cloned in the form of a GST fusion protein; GST; made in house; host or cells: SF21 insect cells (baculovirus, pFastBac)
T1 sequence (P35968 786-1356 limits assumed): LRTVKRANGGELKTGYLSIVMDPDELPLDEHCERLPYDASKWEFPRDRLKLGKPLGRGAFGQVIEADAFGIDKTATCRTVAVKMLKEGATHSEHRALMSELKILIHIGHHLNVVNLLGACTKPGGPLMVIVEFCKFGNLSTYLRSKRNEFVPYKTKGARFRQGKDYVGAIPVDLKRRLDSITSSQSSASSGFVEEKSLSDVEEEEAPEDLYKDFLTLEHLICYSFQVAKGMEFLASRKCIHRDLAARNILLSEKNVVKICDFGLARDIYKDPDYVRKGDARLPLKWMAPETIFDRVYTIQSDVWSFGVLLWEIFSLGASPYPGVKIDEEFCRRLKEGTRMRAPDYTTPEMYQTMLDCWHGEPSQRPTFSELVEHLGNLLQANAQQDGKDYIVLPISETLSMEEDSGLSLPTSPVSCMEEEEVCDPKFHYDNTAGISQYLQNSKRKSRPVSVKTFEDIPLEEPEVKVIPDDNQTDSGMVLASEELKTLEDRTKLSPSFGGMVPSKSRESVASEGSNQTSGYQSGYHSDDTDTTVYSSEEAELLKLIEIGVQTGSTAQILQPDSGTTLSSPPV
The data set can be described thus: KDR substrate phosphorylation inhibition, scintillation technique. The settings on record: GST-KDR cytoplasmic domain, substrate SH2-SH3 fragment of PLCγ, 33P-ATP, one hour at 37° C.; read-out: KDR IC 50. The class given is biochemical. How it is done:
The inhibitory effect of the compounds is determined in an in vitro test of phosphorylation of substrate with the enzyme KDR via a scintillation technique (96-well plate, NEN).
The cytoplasmic domain of the human KDR enzyme was cloned in the form of a GST fusion protein in the pFastBac baculovirus expression vector.
The KDR kinase activity is measured in a 20 mM MOPS, 10 mM MgCl2, 10 mM MnCl2, 1 mM DTT, 2.5 mM EGTA, 10 mM b-glycerophosphate, pH=7.2 buffer, in the presence of 10 mM MgCl2, 100 μm Na3VO4, 1 mM NaF. 10 μl of the compound are added to 70 μL of kinase buffer containing 100 ng of KDR enzyme at 4° C. The reaction is initiated by adding 20 μL of solution containing 2 μg of substrate (SH2-SH3 fragment of PLCγ expressed in the form of a GST fusion protein), 2 μCi of γ^33P[ATP] and 2 μm of cold ATP. After incubation for one hour at 37° C., the reaction is stopped by adding 1 volume (100 μl) of 200 mM EDTA. The incubation buffer is removed, and the wells are washed three times with 300 μL of PBS. The radioactivity in each well is measured using a Top Count NXT radioactivity counter (Packard).
The background is determined by measuring the radioactivity in four different wells containing radioactive ATP and the substrate alone.
A total activity control is measured in four different wells containing all the reagents (γ^33P-[ATP], KDR and substrate PLCγ), but in the absence of compound.
The inhibition of the KDR activity with the compound of the invention is expressed as a percentage of inhibition of the control activity determined in the absence of compound.

In data set [2] the target is T2, human FAK (Homo sapiens, UniProt Q05397).
T2 construct: The whole cDNA of human FAK, the N-terminal end of which has been labelled with histidine; made in house; host or cells: baculovirus expression system (pFastBac HTc)
T2 sequence (Q05397 whole entry): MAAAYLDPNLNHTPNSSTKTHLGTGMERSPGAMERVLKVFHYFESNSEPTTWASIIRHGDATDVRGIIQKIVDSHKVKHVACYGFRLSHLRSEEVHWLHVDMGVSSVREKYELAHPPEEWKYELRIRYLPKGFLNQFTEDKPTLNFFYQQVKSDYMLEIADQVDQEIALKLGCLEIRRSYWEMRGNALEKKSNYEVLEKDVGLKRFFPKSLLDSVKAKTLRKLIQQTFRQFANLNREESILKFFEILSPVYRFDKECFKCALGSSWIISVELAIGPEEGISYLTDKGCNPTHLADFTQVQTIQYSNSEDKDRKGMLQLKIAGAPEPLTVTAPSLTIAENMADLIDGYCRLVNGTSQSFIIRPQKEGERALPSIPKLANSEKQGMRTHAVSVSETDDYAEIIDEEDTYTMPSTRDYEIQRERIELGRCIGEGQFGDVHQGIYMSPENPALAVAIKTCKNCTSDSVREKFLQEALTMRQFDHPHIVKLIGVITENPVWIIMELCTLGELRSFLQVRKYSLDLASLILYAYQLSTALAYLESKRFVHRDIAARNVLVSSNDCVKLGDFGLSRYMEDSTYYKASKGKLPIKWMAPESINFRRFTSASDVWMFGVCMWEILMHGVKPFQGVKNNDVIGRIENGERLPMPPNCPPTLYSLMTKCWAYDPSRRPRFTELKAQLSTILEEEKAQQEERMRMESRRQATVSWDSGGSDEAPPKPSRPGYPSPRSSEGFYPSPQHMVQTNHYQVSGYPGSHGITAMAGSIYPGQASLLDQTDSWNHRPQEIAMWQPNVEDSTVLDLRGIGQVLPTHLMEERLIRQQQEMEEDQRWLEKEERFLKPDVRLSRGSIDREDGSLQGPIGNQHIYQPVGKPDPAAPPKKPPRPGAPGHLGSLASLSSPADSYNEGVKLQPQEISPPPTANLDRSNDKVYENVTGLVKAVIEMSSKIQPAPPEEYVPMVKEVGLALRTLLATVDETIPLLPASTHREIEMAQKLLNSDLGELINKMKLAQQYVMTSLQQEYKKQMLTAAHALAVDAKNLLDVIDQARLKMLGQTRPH
Briefly: FAK autophosphorylation inhibition, time-resolved fluorescence test (HTRF). It counts as biochemical. The settings on record: 15 μM ATP, 1 hour at 37° C., read-out: FAK IC 50. As for the experimental part:
The inhibitory activity of the compounds on FAK is determined by measuring the inhibition of autophosphorylation of the enzyme using a time-resolved fluorescence test (HTRF).
The whole cDNA of human FAK, the N-terminal end of which has been labelled with histidine, was cloned in a pFastBac HTc baculovirus expression vector. The protein was expressed and purified to about 70% homogeneity.
The kinase activity is determined by incubating the enzyme (6.6 μg/mL) with different concentrations of test compound in a 50 mM Hepes pH=7.2, 10 mM MgCl2, 100 μm Na3VO4, 15 μM ATP buffer for 1 hour at 37° C. The enzymatic reaction is stopped by adding Hepes pH=7.0 buffer containing 0.4 mM KF, 133 mM EDTA, 0.1% BSA and the labelling is performed, for 1 to 2 hours at room temperature, by adding to this buffer an anti-Histidine antibody labelled with XL665 and a tyrosine phosphospecific monoclonal antibody conjugated to europium cryptate (Eu—K). The characteristics of the two fluorophores are available in G. Mathis et al., Anticancer Research, 1997, 17, pages 3011-3014. The energy transfer from the excited europium cryptate to the acceptor XL665 is proportional to the degree of autophosphorylation of FAK. The long-lasting signal specific for XL-665 is measured in a Packard Discovery plate counter. All the tests are performed in duplicate and the average of the two tests is calculated. The inhibition of the autophosphorylation activity of FAK with compounds of the invention is expressed as a percentage of inhibition relative to a control whose activity is measured in the absence of test compound. To calculate the percentage inhibition, the ratio [signal at 665 nm/signal at 620 nm] is considered.
For orientation: Time-resolved FRET reads energy transfer from a long-lived donor to a nearby acceptor.

The target of data set [3] is T3, human Tie2 (Homo sapiens, UniProt Q02763).
T3 construct: the amino acids of the intracellular domain 776-1124; made in house; host or cells: baculovirus expression system (pFastBacGT)
T3 sequence (Q02763 776-1124): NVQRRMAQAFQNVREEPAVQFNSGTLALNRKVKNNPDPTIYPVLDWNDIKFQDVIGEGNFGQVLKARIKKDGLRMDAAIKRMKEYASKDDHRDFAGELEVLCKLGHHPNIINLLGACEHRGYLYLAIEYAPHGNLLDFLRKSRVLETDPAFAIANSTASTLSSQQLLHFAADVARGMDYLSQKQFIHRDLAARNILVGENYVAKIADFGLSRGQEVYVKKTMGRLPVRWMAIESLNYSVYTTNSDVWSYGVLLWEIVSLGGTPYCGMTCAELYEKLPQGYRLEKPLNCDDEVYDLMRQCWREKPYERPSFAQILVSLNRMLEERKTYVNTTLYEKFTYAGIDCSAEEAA
Briefly: Tie2 phosphorylation of PLC inhibition, FlashPlate radioactivity. The class given is biochemical. The settings on record: GST-Tie2 intracellular domain 776-1124, substrate GST-PLC, 33P-ATP, one hour at 37° C.; read-out: TIE2 IC 50. As for the experimental part: This sequence was introduced into a pFastBacGT baculovirus expression vector in the form of a GST fusion protein. The inhibitory effect of the molecules is determined in a test of phosphorylation of PLC with Tie2 in the presence of GST-Tie2 purified to about 80% homogeneity. The substrate is composed of the SH2-SH3 fragments of PLC expressed in the form of a GST fusion protein.
The kinase activity of Tie2 is measured in a MOPS 20 mM pH 7.2 buffer, containing 10 mM MgCl2, 10 mM MnCl2, 1 mM DTT, 10 mM of glycerophosphate. In a 96-well FlashPlate plate maintained on ice, a reaction mixture is deposited, composed of 70 μL of kinase buffer containing 100 ng of enzyme GST-Tie2 per well. Next, 10 μL of the test molecule diluted in DMSO to a maximum concentration of 10% are added. For a given concentration, each measurement is performed four times. […] After incubation for one hour at 37° C., the reaction is stopped by adding 1 volume (100 μl) of EDTA 200 mM. After removal of the incubation buffer, the wells are washed three times with 300 μL of PBS. The radioactivity is measured on a MicroBeta1450 Wallac.
The inhibition of the Tie2 activity is calculated and expressed as a percentage of inhibition relative to the control activity determined in the absence of compound.

A word on the melting point: it is the temperature, or range, at which the solid turns liquid. `Cc1ccc(F)c(NC(=O)Nc2ccc(-c3nccc4[nH]nc(N)c34)cc2)c1` [Example 27, 1-[4-(3-Amino-1H-pyrazolo[4,3-c]pyrid-4-yl)phenyl]-3-(2-fluoro-5-methylphenyl-)urea]: the melting point is 195 °C.

The molecule `Nc1n[nH]c2ccnc(-c3ccc(NC(=O)Nc4cc(F)ccc4F)cc3)c12` [Example 32, 1-[4-(3-Amino-1H-pyrazolo[4,3-c]pyrid-4-yl)phenyl]-3-(2,5-difluorophenyl)urea] displayed a melting point of 187 °C.

`COc1ccc(C(F)(F)F)cc1NC(=O)Nc1ccc(-c2ccnc3[nH]nc(N)c23)cc1` [Example 5, 1-[4-(3-Amino-1H-pyrazolo[3,4-b]pyrid-4-yl)phenyl]-3-(2-methoxy-5-trifluoromethylphenyl)urea]: the melting point is > 260 °C. Moreover, the IC50 in data set [1] came out at 49 nM. The IC50 in data set [2] came to 286 nM. In data set [3], the IC50 was found to be 15 nM.

For `Nc1n[nH]c2nccc(-c3ccc(NC(=O)Nc4cc(C(F)(F)F)ccc4F)nc3)c12` [Example 2, 1-[5-(3-Amino-1H-pyrazolo[3,4-b]pyrid-4-yl)pyrid-2-yl]-3-(2-fluoro-5-trifluoromethylphenyl)urea], the IC50 came out at 940 nM in data set [1], 150 nM in data set [2] and 23 nM in data set [3].

For the molecule `CCOc1ccc(C(F)(F)F)cc1NC(=O)Nc1ccc(-c2ccnc3[nH]nc(N)c23)cc1` [Example 14, 1-[4-(3-Amino-1H-pyrazolo[3,4-b]pyrid-4-yl)phenyl]-3-(2-ethoxy-5-trifluoromethylphenyl)urea], the IC50 was 24 nM in data set [1] and 21 nM in data set [3].

Turning to `COc1ccc(C(F)(F)F)cc1NC(=O)Nc1ccc(-c2nccc3[nH]nc(N)c23)cn1` [Example 9, 1-[5-(3-Amino-1H-pyrazolo[4,3-c]pyrid-4-yl)pyrid-2-yl]-3-(2-methoxy-5-trifluoromethylphenyl)urea], the melting point worked out at 228 °C.

As to `COc1ccc(C(F)(F)F)cc1NC(=O)Nc1ccc(-c2cncc3[nH]nc(N)c23)cc1` [Example 38, 1-[4-(3-Amino-1H-pyrazolo[3,4-c]pyrid-4-yl)phenyl]-3-(2-methoxy-5-trifluoromethylphenyl]urea], the melting point was 210 °C.

Regarding `Cc1ccc(F)cc1NC(=O)Nc1ccc(-c2nccc3[nH]nc(N)c23)cc1` [Example 34, 1-[4-(3-Amino-1H-pyrazolo[4,3-c]pyrid-4-yl)phenyl]-3-(5-fluoro-2-methylphenyl)urea], the melting point is > 265 °C.

In the case of `Nc1n[nH]c2ccnc(-c3ccc(NC(=O)Nc4ccccc4)cc3)c12` [Example 8, 1-[4-(3-Amino-1H-pyrazolo[4,3-c]pyrid-4-yl]phenyl]-3-phenylurea], the melting point came out at 188 °C.

Consider `COc1ccc(C(F)(F)F)cc1NC(=O)Nc1ccc(-c2nccc3[nH]nc(N)c23)cc1` [Example 10, 1-[4-(3-Amino-1H-pyrazolo[4,3-c]pyrid-4-yl)phenyl]-3-(2-methoxy-5-trifluoromethylphenyl)urea], for which the melting point came out at 200 °C. Moreover, the IC50 in data set [1] is 60 nM. In addition, the IC50 in data set [3] was 10 nM.

As for `COc1ccc(C(F)(F)F)cc1NC(=O)Nc1ccc(-c2ccnc3[nH]nc(N)c23)cn1` [Example 6, 1-[5-(3-Amino-1H-pyrazolo[3,4-b]pyrid-4-yl)pyrid-2-yl]-3-(2-methoxy-5-trifluoromethylphenyl)urea], the melting point was > 260 °C. The IC50 in data set [1] came out at 1860 nM. In data set [2], the IC50 was determined as 190 nM. Besides, the IC50 in data set [3] turned out to be 27 nM.

As for `COc1ccc(C(C)(C)C)cc1NC(=O)Nc1ccc(-c2nccc3[nH]nc(N)c23)cc1` [Example 29, 1-[4-(3-Amino-1H-pyrazolo[4,3-c]pyrid-4-yl)phenyl]-3-(5-tert-butyl-2-methoxyphenyl)urea], the melting point was found to be 181 °C.

On to `Nc1n[nH]c2cncc(-c3ccc(NC(=O)Nc4cc(C(F)(F)F)ccc4F)cc3)c12` [Example 7, 1-[4-(3-Amino-1H-pyrazolo[3,4-c]pyrid-4-yl)phenyl]-3-(2-fluoro-5-trifluoromethylphenyl)urea], for which the melting point came out at 196 °C. Besides, in data set [3], the IC50 stood at 9 nM.

For the molecule `CC(=O)Nc1ccc(C(F)(F)F)cc1NC(=O)Nc1ccc(-c2nccc3[nH]nc(N)c23)cc1` [Example 11, N-(2-{3-[4-(3-Amino-1H-pyrazolo[4,3-c]pyrid-4-yl)phenyl]ureido}-4-trifluoromethylphenyl)acetamide], the melting point is 182 °C.

Turning to `Nc1n[nH]c2ccnc(-c3ccc(NC(=O)Nc4cc(C(F)(F)F)ccc4F)cc3)c12` [Example 3, 1-[4-(3-Amino-1H-pyrazolo[4,3-c]pyrid-4-yl)phenyl]-3-(2-fluoro-5-trifluoromethylphenyl)urea], the IC50 is 33 nM in data set [1], 73 nM in data set [2] and 5 nM in data set [3].

With `Nc1n[nH]c2nccc(-c3ccc(NC(=O)Nc4cc(C(F)(F)F)ccc4F)cc3)c12` [Example 1, 1-[4-(3-Amino-1H-pyrazolo[3,4-b]pyrid-4-yl)phenyl]-3-(2-fluoro-5-trifluoromethylphenyl)urea], the IC50 in data set [2] was determined as 264 nM.

Consider `Nc1n[nH]c2ccnc(-c3ccc(NC(=O)Nc4cc(C(F)(F)F)ccc4F)nc3)c12` [Example 4, 1-[5-(3-Amino-1H-pyrazolo[4,3-c]pyrid-4-yl)pyrid-2-yl]-3-(2-fluoro-5-trifluoromethylphenyl)urea], for which the figures for the IC50 in data set [1], in data set [2] and in data set [3] were 218 nM, 80 nM and 4 nM, respectively.
